# Experiments:
# [1] = tested on: primary bovine tracheal epithelium; experiment: Transepithelial chloride secretion across primary bovine tracheal epithelium; assay type: cell-based; conditions: DPC 5 mM, after quercetin
# Procedure: Alternatively, such assays may be performed using a mammalian trachea, such as a primary human, mouse, sheep, pig or cow tracheal epithelium using the Ussing chamber technique as described above. Such assays are performed in the presence and absence of test compound to identify flavones, isoflavones, ascorbate or derivatives thereof that stimulate chloride transport.
# FIG. 3 illustrates the results of a related experiment to evaluate the dose-dependent stimulation of transepithelial chloride secretion by quercetin across a primary bovine tracheal epithelium. The epithelial cells were first treated with amiloride (50 μM), and then with quercetin at the indicated concentrations. The dose-response relation yielded a half maximal stimulation at 12.5 μM.
# Calu-3 monolayers = experiment: Transepithelial short-circuit current (Isc) across unstimulated Calu-3 monolayers; assay type: cell-based, human; conditions: DPC 5 mM
# Procedure: Currents were recorded with a serosal-to-mucosal chloride gradient at 0 mV and pulses were obtained at 2 mV.
# Ascorbic acid (100 μM) was added as indicated. For comparison, ascorbic acid-stimulated chloride current was subsequently stimulated by the cAMP elevating agonist forskolin (20 μM, serosal). The CFTR activator genistein (20 mM) was then added to the mucosal perfusion as indicated. […] Currents were recorded with a serosal-to-mucosal chloride gradient at 0 mV and pulses were obtained at 2 mV.
# 100 μM ascorbic acid and forskolin (fsk, 20 μM, serosal) were added as indicated. The CFTR activator kaempferol (20 μM) was subsequently added, as indicated. […] Currents were recorded with a serosal-to-mucosal chloride gradient at 0 mV and pulses were obtained at 2 mV.
# This experiment was performed using unstimulated tissue.
# Kinetic analysis is depicted on the right panel and estimated half maximal stimulatory dose was 11.7 μM. […]
# For comparison, ascorbic acid-stimulated chloride currents were stimulated by the cAMP elevating agonist forskolin (20 μM, serosal).
# Stimulated C1 currents returned to baseline after 5-15 min.
# Calu-3 airway epithelia = experiment: Short-circuit current (transepithelial Cl secretion) across Calu-3 airway epithelia, Examples 12-13; assay type: cell-based, human; conditions: DPC 4 mM after L-ascorbic acid and forskolin
# Procedure: Short-circuit current measurement. Calu-3 or CF15 cells were grown as monolayers, mounted in Ussing chambers and short-circuit current (ISC) was recorded as described (Illek, B. & Fischer, H. (1998) Am. J. Physiol. 275, L902-L910). At 20-50 second intervals, transepithelial voltage was clamped from zero to 2 mV and the transepithelial resistance (Rte) was calculated. A serosa-to-mucosa-directed Cl gradient was applied. Serosal Ussing chamber solution contained (in mM): 120 NaCl, 20 NaHCO3, 5 KHCO3, 1.2 NaH2PO4, 5.6 glucose, 2.5 CaCl2, 1.2 MgCl2. In mucosal Ussing chamber solutions, all Cl salts were exchanged for gluconate salts.
# Vitamin C activation of CFTR-mediated Cl secretion was studied in Calu-3 cells grown as epithelial monolayers (FIG. 21A). Exposure of the apical membrane to maximal concentrations of L-ascorbic acid stimulated transepithelial Cl currents (ISC) in a sustained fashion to 96±11 μA/cm^2 (n=22). Subsequent addition of forskolin further increased ISC to 141±33 μA/cm^2 (n=9, p=0.029). On average, Cl secretion was stimulated by ascorbate to 68% of the currents elicited by forskolin. The Cl channel blocker diphenylcarboxylate (DPC, 4 mM) was added as a measure for the transcellular Cl current decreasing ISC to 30±4 μA/cm^2. When Cl secretion was first stimulated with forskolin (to 106±23 μA/cm^2, n=4) ascorbate had no significant effect on Ise (at 100 μM: ΔICl=−1.5±3.5 μA/cm^2, n=4, not different from zero, one-sample t test). Half-maximal stimulatory constant averaged 36.5±2.9 μm as determined from transepithelial dose-response experiments.
# Furthermore, the response to ascorbate in Na-containing medium was blunted in the presence of phloretin, a known inhibitor of the sodium-dependent vitamin C transporters SVCT1 and SVCT2 (Tsukaguchi, H., Tokui, T., Mackenzie, B., Berger, U. V., Chen, X. Z., Wang, Y., Brubaker, R. F. & Hediger, M. A. (1999) Nature 399, 70-75). […] Molecular expression of SVCT1 and SVCT2 transcripts in Calu-3 cells was verified using RT-PCR and DNA sequencing analysis. For comparison, human ciliated tracheal epithelial cultures (hTE) and a nasal cystic fibrosis airway cell line (CF15) were included. […] The recombinantly expressed SVCT2-EGFP fusion protein was targeted exclusively to the apical membrane pole of CF15 epithelia.
smiles,measurement,setting,value
"O=C(O)c1ccccc1Nc1ccccc1 [DPC, reference compound]",inhibition of stimulated current by CFTR channel blocker,[1],fully inhibited
same,block of stimulated chloride current by chloride channel blocker,Calu-3 monolayers,completely blocked
same,ISC decreased to,Calu-3 airway epithelia,30±4 μA/cm^2
